target: T1, EHMT1 (Homo sapiens, UniProt Q9H9B1); test: EHMT1 enzyme assay on peptide substrate (EHMT1 PEP); type: biochemical; conditions: Table VI; read-out: EHMT1 PEP IC50
T1 sequence (Q9H9B1 1-1298): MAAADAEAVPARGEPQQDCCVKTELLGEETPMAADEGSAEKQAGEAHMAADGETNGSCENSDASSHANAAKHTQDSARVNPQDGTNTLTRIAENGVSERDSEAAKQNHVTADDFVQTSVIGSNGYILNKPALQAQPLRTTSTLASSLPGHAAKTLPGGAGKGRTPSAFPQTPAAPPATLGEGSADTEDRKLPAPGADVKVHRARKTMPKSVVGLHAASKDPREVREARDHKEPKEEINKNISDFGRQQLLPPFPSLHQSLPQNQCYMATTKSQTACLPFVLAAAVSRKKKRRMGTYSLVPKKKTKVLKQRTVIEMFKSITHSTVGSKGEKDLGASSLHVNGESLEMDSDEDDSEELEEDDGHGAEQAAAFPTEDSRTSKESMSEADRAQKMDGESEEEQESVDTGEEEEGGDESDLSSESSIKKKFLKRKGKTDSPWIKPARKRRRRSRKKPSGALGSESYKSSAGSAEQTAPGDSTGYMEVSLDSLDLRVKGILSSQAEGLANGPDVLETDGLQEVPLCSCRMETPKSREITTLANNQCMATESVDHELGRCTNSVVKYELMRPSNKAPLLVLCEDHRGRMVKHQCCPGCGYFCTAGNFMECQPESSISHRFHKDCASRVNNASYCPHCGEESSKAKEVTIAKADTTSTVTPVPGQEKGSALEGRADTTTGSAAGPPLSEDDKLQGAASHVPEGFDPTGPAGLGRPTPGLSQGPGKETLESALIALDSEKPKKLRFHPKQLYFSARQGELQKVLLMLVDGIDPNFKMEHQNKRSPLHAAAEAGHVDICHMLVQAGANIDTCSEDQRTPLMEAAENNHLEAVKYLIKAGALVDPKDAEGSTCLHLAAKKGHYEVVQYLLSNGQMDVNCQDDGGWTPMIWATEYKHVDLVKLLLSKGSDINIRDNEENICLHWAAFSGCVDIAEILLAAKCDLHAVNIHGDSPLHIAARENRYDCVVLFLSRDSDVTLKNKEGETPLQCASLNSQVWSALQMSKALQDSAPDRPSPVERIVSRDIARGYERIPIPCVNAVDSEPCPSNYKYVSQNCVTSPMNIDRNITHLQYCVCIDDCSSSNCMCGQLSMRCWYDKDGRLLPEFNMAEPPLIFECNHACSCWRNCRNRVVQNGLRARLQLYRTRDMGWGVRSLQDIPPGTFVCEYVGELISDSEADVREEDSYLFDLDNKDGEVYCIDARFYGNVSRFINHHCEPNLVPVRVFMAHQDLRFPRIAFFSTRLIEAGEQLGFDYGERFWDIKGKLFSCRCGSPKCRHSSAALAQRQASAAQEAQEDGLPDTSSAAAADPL

Structure (SMILES)	IC50 [nM]
CNCCNCc1cc(Nc2nccc(NC)n2)cnc1OC [Compound 1035]	100 to 1000
CNCCNC(C)c1cc(Nc2nc(C)cc(NC)n2)ccc1OC (stereo not shown) [Compound 1036]	100 to 1000
CNCC(C)NCc1cc(Nc2nc(C)cc(NC)n2)ccc1OC (stereo not shown) [Compound 1037]	100 to 1000
CNc1cc(C)nc(Nc2ccc(OC)c(OC[C@H](O)CN3CCC3)c2)n1 [Compound 1038, (2R)-1-(azetidin-1-yl)-3-(2-methoxy-5-[[4-methyl-6-(methylamino)pyrimidin-2-yl]amino]phenoxy)propan-2-ol]	< 100
CNc1cc(C)nc(Nc2ccc(OC)c(OC[C@@H]3CCN(C(C)C)C3)c2)n1 [Compound 1040]	100 to 1000

The next lines start with the values.

IC50 [nM]	Structure (SMILES)
100 to 1000	COc1cc(N(C)C2CCNCC2)ncc1OCC1CCNC1 (stereo not shown) [Compound 1041]
1000 to 10000	COc1cc(N(C)C2CCN(C)CC2)ncc1OCC1CCNC1 (stereo not shown) [Compound 1042]
